Results published in ChEMBL document CHEMBL2203036, “Discovery of 1-[2-(2,4-dimethylphenylsulfanyl)phenyl]piperazine (Lu AA21004): a novel multimodal compound for the treatment of major depressive disorder” (J Med Chem, 2011).
The source made the active and inactive calls. No cut-off for these calls is given here.

Experiments:
[1] = target: 5-hydroxytryptamine receptor 1A (Rattus norvegicus) (UniProt P19327); experiment: Binding affinity to rat 5HT1A receptor
[2] = target: Melanocortin receptor 4 (Homo sapiens) (UniProt P32245); experiment: Inhibition of human MC4 receptor at 1 uM
Sequence of Melanocortin receptor 4 (Homo sapiens) (P32245 whole entry): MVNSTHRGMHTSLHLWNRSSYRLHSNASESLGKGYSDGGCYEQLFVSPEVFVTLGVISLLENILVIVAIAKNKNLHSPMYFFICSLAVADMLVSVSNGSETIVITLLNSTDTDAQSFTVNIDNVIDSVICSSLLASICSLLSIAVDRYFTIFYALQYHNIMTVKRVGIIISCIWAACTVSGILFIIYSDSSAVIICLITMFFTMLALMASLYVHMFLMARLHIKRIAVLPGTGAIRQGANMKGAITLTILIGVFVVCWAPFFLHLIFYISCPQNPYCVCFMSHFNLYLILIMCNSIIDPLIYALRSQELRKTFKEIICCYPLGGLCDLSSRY

Rattus norvegicus [3] = experiment: Target occupancy at SERT in Harlan rat at 5 mg/kg, sc administered QD for 3 days relative to vehicle-treated control; format: functional; conditions: route subcutaneous
[4] = target: T1, 5-hydroxytryptamine receptor 3A (Homo sapiens) (UniProt P46098); experiment: Inhibition of human 5HT3A receptor at 1 uM
T1 sequence (whole entry): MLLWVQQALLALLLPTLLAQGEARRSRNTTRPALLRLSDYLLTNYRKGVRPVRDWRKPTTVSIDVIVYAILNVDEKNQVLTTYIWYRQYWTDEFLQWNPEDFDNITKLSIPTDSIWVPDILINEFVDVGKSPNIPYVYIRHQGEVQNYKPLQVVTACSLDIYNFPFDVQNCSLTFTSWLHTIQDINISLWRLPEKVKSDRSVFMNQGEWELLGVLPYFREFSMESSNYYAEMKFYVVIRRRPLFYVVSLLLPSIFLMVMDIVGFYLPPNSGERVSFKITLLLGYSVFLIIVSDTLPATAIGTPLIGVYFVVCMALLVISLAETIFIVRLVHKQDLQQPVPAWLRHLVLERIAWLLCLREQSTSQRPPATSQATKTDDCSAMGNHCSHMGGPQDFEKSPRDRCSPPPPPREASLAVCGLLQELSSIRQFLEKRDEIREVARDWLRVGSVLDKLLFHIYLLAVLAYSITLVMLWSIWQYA

Cytochrome P450 3A4 = Cytochrome P450 3A4 (Homo sapiens, UniProt P08684); experiment: Inhibition of human recombinant CYP3A4 using resorufin benzyl ether after 30 mins by fluorescence spectrophotometric analysis; format: ADME
Sequence of Cytochrome P450 3A4 (P08684 whole entry): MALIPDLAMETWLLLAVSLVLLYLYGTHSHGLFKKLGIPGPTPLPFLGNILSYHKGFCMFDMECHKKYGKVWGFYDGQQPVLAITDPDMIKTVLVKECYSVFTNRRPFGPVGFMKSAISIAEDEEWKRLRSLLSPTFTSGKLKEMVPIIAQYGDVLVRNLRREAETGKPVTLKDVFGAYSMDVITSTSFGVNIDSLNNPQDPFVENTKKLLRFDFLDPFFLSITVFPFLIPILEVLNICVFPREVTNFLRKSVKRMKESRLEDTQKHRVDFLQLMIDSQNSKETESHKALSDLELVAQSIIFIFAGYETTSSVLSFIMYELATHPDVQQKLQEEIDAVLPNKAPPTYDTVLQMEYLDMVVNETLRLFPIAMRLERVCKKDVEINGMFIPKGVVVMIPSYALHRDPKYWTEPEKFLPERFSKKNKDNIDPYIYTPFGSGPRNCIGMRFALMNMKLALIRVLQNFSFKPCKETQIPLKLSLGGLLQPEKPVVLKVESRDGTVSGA

Rattus norvegicus [5] = experiment: Antidepression activity in sc dosed Harlan rat assessed as increase in extracellular 5HT level in ventral hippocampus region measured up to 180 mins by microdialysis method
Cytochrome P450 2C9 = Cytochrome P450 2C9 (Homo sapiens, UniProt P11712); experiment: Inhibition of human recombinant CYP2C9 using dibenzylfluorescein after 45 mins by fluorescence spectrophotometric analysis; format: ADME
Sequence of Cytochrome P450 2C9 (P11712 whole entry): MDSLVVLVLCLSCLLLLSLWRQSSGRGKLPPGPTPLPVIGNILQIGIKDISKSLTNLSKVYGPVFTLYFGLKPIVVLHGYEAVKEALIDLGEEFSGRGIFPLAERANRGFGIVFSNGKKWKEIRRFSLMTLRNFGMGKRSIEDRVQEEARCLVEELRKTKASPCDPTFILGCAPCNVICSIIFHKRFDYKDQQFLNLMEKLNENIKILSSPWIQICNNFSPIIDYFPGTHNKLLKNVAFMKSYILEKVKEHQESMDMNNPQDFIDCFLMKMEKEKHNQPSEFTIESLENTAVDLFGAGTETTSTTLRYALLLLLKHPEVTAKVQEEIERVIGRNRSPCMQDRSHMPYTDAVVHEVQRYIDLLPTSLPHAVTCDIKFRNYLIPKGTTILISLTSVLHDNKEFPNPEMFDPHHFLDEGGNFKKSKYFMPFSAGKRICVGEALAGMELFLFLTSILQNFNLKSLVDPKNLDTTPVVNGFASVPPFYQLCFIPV

[6] = target: T2, 5-hydroxytryptamine receptor 7 (Homo sapiens, UniProt P34969); experiment: Binding affinity to human 5HT7 receptor
T2 sequence (P34969 whole entry): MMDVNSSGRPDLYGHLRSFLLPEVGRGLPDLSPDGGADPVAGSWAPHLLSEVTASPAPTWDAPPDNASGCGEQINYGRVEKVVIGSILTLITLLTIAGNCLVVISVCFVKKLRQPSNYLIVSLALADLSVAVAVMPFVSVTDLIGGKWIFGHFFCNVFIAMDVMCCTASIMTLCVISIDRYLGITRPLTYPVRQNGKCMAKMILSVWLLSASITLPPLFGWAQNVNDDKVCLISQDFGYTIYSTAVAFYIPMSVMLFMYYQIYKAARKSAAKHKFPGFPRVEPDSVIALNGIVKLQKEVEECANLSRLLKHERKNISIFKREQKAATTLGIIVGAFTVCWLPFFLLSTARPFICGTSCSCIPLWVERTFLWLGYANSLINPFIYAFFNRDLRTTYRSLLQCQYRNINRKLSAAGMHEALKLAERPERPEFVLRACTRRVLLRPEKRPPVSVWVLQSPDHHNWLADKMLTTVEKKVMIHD

[7] = target: T3, 5-hydroxytryptamine receptor 1B (Homo sapiens, UniProt P28222); experiment: Inhibition of human 5HT1B receptor at 1 uM
T3 sequence (P28222 whole entry): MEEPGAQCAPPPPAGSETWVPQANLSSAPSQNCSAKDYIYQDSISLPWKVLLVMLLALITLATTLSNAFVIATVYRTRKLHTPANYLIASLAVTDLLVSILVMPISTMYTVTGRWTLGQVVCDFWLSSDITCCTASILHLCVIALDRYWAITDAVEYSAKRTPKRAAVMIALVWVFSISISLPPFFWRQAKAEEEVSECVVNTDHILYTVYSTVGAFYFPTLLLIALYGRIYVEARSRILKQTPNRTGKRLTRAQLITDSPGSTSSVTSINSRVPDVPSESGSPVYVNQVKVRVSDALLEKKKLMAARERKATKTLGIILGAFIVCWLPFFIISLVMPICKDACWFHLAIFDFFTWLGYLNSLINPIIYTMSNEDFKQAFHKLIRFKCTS

[8] = target: 5-hydroxytryptamine receptor 6 (Homo sapiens, UniProt P50406); experiment: Binding affinity to human 5HT6 receptor
Sequence of 5-hydroxytryptamine receptor 6 (P50406 whole entry): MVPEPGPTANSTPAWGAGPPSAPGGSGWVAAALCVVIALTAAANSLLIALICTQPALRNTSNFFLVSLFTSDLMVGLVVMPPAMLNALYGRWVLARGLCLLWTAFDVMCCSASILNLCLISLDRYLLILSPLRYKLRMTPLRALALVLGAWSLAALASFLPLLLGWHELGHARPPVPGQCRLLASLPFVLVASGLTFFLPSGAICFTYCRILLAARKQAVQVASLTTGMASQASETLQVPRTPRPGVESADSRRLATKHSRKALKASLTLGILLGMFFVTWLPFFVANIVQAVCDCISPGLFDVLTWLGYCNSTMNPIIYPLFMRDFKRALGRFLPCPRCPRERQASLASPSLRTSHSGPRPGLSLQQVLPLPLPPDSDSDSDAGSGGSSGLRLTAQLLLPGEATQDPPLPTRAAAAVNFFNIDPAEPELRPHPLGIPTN

[9] = target: T2, 5-hydroxytryptamine receptor 7; experiment: Antagonist activity at human 5HT7 receptor expressed in HEK-CNG cells assessed as effect on cAMP production by fluorescence based assay; format: functional, cell-based
Liver microsomes [10] = experiment: Intrinsic clearance in human liver microsomes at 1 uM after 60 mins by LC-MS/MS analysis; format: ADME, Microsome; conditions: 1 h
[11] = target: Sodium-dependent dopamine transporter (Rattus norvegicus, UniProt P23977); experiment: Inhibition of DAT-mediated [3H]DA in rat synaptosomes by scintillation counting; format: subcellular, Brain
Rattus norvegicus [12] = experiment: Target occupancy at SERT in Harlan rat at 10 mg/kg, sc administered QD for 3 days relative to vehicle-treated control; format: functional; conditions: route subcutaneous
Histamine H2 receptor = Histamine H2 receptor (Homo sapiens, UniProt P25021); experiment: Binding affinity to human histamine H2 receptor
Sequence of Histamine H2 receptor (P25021 whole entry): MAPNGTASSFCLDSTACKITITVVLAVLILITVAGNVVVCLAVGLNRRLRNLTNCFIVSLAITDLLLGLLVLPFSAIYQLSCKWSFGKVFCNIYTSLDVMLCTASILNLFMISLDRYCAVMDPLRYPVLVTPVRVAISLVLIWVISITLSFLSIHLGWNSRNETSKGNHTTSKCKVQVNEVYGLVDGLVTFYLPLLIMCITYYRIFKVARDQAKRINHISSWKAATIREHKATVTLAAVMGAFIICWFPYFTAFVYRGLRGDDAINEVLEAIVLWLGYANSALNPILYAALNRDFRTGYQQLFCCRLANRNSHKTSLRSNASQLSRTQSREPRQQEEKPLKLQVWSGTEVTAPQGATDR

[13] = Oral bioavailability in rat at 2 mg/kg; format: ADME, organism-based; conditions: in vivo
Cytochrome P450 1A2 = target: T4, Cytochrome P450 1A2 (Homo sapiens, UniProt P05177); experiment: Inhibition of human recombinant CYP1A2 using 7-ethoxy-3-cyanocoumarin after 28 mins by fluorescence spectrophotometric analysis; format: ADME
T4 sequence (P05177 whole entry): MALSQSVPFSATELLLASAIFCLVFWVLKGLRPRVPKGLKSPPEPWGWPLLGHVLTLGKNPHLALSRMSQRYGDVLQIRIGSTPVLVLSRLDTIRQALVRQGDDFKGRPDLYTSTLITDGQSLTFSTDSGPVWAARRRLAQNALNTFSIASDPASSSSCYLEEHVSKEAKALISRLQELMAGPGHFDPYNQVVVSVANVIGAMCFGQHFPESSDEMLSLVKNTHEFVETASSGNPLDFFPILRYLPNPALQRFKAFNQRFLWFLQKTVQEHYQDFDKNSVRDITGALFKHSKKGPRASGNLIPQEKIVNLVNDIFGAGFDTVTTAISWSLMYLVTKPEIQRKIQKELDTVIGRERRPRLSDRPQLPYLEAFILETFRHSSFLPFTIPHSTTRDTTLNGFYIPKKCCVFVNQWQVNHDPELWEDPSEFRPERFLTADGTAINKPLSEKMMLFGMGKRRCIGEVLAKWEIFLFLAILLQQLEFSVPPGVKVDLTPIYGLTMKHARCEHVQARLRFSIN

[14] = target: Sodium-dependent noradrenaline transporter (Homo sapiens) (UniProt P23975); experiment: Inhibition of human NET at 1 uM
[15] = target: 5-hydroxytryptamine receptor 5A (Homo sapiens, UniProt P47898); experiment: Binding affinity to human 5HT5A receptor
Sequence of 5-hydroxytryptamine receptor 5A (P47898 whole entry): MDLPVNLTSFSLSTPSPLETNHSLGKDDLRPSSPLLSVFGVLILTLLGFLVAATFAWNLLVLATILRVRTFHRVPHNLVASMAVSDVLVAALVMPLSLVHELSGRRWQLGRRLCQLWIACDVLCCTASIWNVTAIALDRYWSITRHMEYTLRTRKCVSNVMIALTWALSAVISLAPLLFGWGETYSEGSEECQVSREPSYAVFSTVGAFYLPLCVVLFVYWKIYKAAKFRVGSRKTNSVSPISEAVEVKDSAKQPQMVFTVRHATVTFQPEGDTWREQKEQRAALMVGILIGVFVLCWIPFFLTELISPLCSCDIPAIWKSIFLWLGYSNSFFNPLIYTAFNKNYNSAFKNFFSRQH

[16] = target: 5-hydroxytryptamine receptor 3A (Rattus norvegicus) (UniProt P35563); experiment: Agonist activity at rat 5HT3A receptor expressed in xenopus oocytes at 0.1 to 100000 nM by electrophysiological method; conditions: Oocyte
Sequence of 5-hydroxytryptamine receptor 3A (Rattus norvegicus) (P35563 whole entry): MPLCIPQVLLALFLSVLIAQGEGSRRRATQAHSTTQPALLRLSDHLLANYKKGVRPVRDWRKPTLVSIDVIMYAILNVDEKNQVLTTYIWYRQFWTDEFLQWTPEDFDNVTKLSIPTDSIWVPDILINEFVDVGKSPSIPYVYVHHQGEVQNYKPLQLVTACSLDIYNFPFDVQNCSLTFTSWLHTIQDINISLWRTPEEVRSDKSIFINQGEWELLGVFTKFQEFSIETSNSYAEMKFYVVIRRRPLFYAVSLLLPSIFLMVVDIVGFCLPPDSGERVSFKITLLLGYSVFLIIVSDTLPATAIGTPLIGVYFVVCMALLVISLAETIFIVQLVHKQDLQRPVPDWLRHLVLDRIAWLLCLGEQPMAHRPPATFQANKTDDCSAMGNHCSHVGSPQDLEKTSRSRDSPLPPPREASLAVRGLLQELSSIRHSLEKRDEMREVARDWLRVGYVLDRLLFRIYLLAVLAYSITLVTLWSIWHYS

[17] = target: T3, 5-hydroxytryptamine receptor 1B; experiment: Binding affinity at human 5HT1B receptor
Liver microsomes [18] = experiment: Intrinsic clearance in rat liver microsomes at 1 uM after 60 mins by LC-MS/MS analysis; format: ADME, Microsome; conditions: 1 h
Rattus norvegicus [19] = experiment: Antidepression activity in Harlan rat assessed as increase in extracellular 5HT level in ventral hippocampus region at 2.5 mg/kg, sc measured from 60 to 120 mins by microdialysis method
[20] = target: T3, 5-hydroxytryptamine receptor 1B; experiment: Partial agonist activity at human 5HT1B receptor expressed in CHO cells assessed as [35S]GTPgammaS binding relative to 5HT
Rattus norvegicus [21] = experiment: Antidepression activity in Harlan rat assessed as increase in extracellular 5HT level in ventral hippocampus region at 5 to 10 mg/kg, sc measured from 40 to 180 mins by microdialysis method
Histamine H1 receptor = Histamine H1 receptor (Homo sapiens, UniProt P35367); experiment: Binding affinity to human histamine H1 receptor
Sequence of Histamine H1 receptor (P35367 whole entry): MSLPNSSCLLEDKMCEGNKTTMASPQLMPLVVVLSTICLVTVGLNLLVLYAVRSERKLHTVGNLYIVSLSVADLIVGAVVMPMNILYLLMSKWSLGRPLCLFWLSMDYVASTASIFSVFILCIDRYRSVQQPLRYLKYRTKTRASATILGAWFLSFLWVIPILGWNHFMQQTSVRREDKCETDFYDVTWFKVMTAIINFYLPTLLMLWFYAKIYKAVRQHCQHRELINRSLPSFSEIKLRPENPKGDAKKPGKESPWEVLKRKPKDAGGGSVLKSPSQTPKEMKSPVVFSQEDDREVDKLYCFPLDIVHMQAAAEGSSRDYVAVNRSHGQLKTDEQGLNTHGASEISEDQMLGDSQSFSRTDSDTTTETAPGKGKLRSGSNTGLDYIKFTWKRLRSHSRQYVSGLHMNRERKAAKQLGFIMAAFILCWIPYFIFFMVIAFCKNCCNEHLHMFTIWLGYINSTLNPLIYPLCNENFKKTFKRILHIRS

[22] = target: Sodium-dependent serotonin transporter (Homo sapiens, UniProt P31645); experiment: Binding affinity to human SERT
[23] = target: T5, 5-hydroxytryptamine receptor 3A (Homo sapiens, UniProt P46098); experiment: Antagonist activity at human 5HT3A receptor expressed in xenopus oocytes assessed as inhibition of 5HT-induced effect by electrophysiological method; format: functional, cell-based, Oocyte
T5 sequence (P46098 whole entry): T1 sequence (whole entry)

Sequence of 5-hydroxytryptamine receptor 1A (Rattus norvegicus) (P19327 whole entry, looked up): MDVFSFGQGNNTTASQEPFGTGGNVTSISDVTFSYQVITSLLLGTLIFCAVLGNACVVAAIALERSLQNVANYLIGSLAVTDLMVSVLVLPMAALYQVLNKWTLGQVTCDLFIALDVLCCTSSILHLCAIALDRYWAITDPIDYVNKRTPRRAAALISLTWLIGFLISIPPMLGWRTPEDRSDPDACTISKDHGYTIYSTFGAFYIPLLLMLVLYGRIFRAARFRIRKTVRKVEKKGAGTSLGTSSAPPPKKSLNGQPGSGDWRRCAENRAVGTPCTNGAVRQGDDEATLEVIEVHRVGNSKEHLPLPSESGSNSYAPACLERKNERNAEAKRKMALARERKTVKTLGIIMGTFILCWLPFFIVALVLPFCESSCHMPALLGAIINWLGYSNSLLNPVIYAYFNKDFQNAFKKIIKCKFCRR

## Cc1ccc(Sc2ccccc2N2CCNCC2)c(C)c1.Cl
[1]
  Ki: 230 nM
[2]
  inhibition: 51%
Rattus norvegicus [3]
  Occ: 43%
[4]
  inhibition: 100%
Cytochrome P450 3A4
  IC50: 10000 nM
Rattus norvegicus [5]
  Activity: Dose-dependent effect
Cytochrome P450 2C9
  IC50: 39000 nM
[6]
  Ki: 19 nM
[7]
  inhibition: 100%
[8]
  Ki: 330 nM
[9]
  Ki: 450 nM
Liver microsomes [10]
  CLH: 0.5 L/min
[11]
  IC50: 890 nM
Rattus norvegicus [12]
  Occ: 57%
Histamine H2 receptor
  Ki: 180 nM
[13]
  bioavailability: 16%
Cytochrome P450 1A2
  IC50: 40000 nM
[14]
  inhibition: 88%
[15]
  Ki: 220 nM
[16]
  Activity: inactive
[17]
  Ki: 33 nM
Liver microsomes [18]
  CLH: 55 mL/min
Rattus norvegicus [19]
  Activity: Active
[20]
  Efficacy: 55%
Rattus norvegicus [21]
  Activity: Active
Histamine H1 receptor
  Ki: 180 nM
[22]
  Ki: 1.6 nM
[23]
  IC50: 12 nM
